Reference: article PMC8800111 (The Journal of Biological Chemistry, 2021)

Columns and labels:
Type in all cases: cell-based
[1] = target: proteins of U3A human fibrosarcoma cells (4462 proteins detected) (Homo sapiens, UniProt Q15269); conditions: protein PWP2; U3A cells
[2] = target: proteins of U3A human fibrosarcoma cells (4462 proteins detected) (Homo sapiens, UniProt Q16666); conditions: protein IFI16; soluble abundance after heat, U3A cells
[3] = target: proteins of U3A human fibrosarcoma cells (4462 proteins detected) (Homo sapiens, UniProt O75937); conditions: protein DNAJC8, U3A cells
[4] = target: proteins of U3A human fibrosarcoma cells (4462 proteins detected) (Homo sapiens, UniProt Q6UWP8); conditions: protein SBSN, U3A cells
[5] = target: proteins of U3A human fibrosarcoma cells (4462 proteins detected) (Homo sapiens, UniProt Q8TDD1); conditions: protein DDX54; U3A, 10 μM, 2 h
[6] = target: proteins of U3A human fibrosarcoma cells (4462 proteins detected) (Homo sapiens, UniProt Q6ZQQ6); conditions: protein WDR87; U3A, 10 μM, 2 h
[7] = target: proteins of U3A human fibrosarcoma cells (4462 proteins detected) (Homo sapiens, UniProt Q96AT1); conditions: protein KIAA1143; U3A, 10 μM, 2 h
[8] = target: proteins of U3A human fibrosarcoma cells (4462 proteins detected) (Homo sapiens, UniProt Q9H9Y6); conditions: protein POLR1B; soluble abundance after heat, U3A cells
[9] = target: proteins of U3A human fibrosarcoma cells (4462 proteins detected) (Homo sapiens, UniProt P49588); conditions: protein AARS, U3A cells
[10] = target: proteins of U3A human fibrosarcoma cells (4462 proteins detected) (Homo sapiens, UniProt Q9Y2K3); conditions: protein MYH15; U3A cells
Chain of proteins of U3A human fibrosarcoma cells (4462 proteins detected) (Homo sapiens, UniProt Q9Y2K3) (Q9Y2K3 whole entry): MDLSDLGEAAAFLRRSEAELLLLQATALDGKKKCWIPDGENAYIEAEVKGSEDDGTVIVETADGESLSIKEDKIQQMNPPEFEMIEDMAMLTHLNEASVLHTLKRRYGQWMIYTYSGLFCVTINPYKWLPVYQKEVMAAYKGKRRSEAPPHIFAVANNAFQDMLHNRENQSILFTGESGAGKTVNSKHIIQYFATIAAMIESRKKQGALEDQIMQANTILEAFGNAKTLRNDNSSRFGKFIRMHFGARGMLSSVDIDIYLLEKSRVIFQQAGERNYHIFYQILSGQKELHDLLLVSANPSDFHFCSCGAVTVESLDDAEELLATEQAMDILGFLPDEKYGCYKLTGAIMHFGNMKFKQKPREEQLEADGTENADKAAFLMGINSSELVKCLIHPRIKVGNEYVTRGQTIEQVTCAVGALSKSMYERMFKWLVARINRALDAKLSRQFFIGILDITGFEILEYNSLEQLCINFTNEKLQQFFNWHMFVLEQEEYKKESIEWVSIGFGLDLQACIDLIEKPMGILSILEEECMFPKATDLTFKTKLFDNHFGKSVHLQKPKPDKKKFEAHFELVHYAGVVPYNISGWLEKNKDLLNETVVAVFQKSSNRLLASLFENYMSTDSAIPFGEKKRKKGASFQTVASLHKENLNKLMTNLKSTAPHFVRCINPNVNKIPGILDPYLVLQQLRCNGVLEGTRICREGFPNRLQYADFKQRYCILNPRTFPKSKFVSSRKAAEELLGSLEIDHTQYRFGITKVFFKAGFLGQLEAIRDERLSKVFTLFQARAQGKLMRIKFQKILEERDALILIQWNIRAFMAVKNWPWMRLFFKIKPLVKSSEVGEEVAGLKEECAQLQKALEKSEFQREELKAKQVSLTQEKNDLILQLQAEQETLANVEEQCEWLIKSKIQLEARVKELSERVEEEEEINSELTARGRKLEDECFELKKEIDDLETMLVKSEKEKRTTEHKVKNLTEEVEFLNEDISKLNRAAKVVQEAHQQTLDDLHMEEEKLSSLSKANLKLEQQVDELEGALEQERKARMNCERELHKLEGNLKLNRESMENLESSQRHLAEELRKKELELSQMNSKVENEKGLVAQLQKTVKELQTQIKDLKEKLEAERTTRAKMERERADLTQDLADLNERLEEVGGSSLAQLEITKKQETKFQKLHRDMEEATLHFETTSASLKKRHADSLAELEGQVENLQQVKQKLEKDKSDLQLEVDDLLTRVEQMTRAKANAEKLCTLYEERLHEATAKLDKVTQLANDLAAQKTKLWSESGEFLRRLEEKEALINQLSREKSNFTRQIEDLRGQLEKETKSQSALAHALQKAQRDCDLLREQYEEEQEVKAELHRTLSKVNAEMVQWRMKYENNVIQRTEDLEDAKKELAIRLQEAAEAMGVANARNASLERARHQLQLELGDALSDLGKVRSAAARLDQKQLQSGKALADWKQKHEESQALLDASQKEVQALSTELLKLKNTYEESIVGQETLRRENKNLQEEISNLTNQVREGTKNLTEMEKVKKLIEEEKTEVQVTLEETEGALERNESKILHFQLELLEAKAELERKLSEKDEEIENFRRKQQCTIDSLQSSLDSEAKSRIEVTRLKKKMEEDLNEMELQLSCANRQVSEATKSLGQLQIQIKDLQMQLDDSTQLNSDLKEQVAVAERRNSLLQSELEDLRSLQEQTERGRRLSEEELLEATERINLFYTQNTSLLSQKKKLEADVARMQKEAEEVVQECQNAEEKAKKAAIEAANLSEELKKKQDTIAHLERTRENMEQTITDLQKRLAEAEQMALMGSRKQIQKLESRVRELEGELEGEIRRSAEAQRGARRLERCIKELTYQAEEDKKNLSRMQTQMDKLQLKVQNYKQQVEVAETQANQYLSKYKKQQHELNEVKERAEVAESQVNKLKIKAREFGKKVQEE

[11] = target: proteins of U3A human fibrosarcoma cells (4462 proteins detected) (Homo sapiens, UniProt Q4KWH8); conditions: protein PLCH1; U3A, 10 μM, 2 h
[12] = target: proteins of U3A human fibrosarcoma cells (4462 proteins detected) (Homo sapiens, UniProt Q8IZL8); conditions: protein PELP1; U3A cells
[13] = target: proteins of U3A human fibrosarcoma cells (4462 proteins detected) (Homo sapiens, UniProt Q6QNY1); conditions: protein BLOC1S2, U3A cells
Chain of proteins of U3A human fibrosarcoma cells (4462 proteins detected) (Homo sapiens, UniProt Q6QNY1) (Q6QNY1 whole entry): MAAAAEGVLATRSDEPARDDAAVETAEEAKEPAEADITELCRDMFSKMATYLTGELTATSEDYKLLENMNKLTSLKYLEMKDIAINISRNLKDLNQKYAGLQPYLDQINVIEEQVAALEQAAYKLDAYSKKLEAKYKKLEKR

[14] = target: proteins of U3A human fibrosarcoma cells (4462 proteins detected) (Homo sapiens, UniProt Q9Y237); conditions: protein PIN4, U3A cells
[15] = target: proteins of U3A human fibrosarcoma cells (4462 proteins detected) (Homo sapiens, UniProt O60341); conditions: protein KDM1A; soluble abundance after heat, U3A cells
[16] = target: proteins of U3A human fibrosarcoma cells (4462 proteins detected) (Homo sapiens, UniProt Q9UNM6); conditions: protein PSMD13; U3A cells
Chain of proteins of U3A human fibrosarcoma cells (4462 proteins detected) (Homo sapiens, UniProt Q9UNM6) (Q9UNM6 whole entry): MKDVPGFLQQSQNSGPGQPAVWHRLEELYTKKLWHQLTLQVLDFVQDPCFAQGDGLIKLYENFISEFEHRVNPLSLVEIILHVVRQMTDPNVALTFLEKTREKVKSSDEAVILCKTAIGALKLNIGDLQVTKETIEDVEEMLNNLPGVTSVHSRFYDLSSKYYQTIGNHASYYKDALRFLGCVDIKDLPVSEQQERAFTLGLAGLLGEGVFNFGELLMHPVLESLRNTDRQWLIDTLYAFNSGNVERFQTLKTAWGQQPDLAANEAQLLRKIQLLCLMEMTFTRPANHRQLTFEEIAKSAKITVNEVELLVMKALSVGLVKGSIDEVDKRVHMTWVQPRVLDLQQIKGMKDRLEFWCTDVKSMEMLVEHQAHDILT

[17] = target: proteins of U3A human fibrosarcoma cells (4462 proteins detected) (Homo sapiens, UniProt Q15084); conditions: protein PDIA6; U3A cells
Chain of proteins of U3A human fibrosarcoma cells (4462 proteins detected) (Homo sapiens, UniProt Q15084) (Q15084 20-440): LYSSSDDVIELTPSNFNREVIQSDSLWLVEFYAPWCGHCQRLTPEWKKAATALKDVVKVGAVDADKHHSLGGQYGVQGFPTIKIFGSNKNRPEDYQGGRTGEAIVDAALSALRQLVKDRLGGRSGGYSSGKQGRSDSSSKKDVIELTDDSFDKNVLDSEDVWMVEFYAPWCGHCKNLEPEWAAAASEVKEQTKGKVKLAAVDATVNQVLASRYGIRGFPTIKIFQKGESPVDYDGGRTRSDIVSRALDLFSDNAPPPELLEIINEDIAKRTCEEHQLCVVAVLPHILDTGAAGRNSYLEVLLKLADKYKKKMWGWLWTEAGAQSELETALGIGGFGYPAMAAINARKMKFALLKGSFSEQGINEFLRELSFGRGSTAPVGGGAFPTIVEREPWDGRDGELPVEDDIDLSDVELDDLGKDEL

[18] = target: proteins of U3A human fibrosarcoma cells (4462 proteins detected) (Homo sapiens, UniProt P48643); conditions: protein CCT5; U3A cells
[19] = target: proteins of U3A human fibrosarcoma cells (4462 proteins detected) (Homo sapiens, UniProt Q8TA86); conditions: protein RP9, U3A cells
[20] = target: proteins of U3A human fibrosarcoma cells (4462 proteins detected) (Homo sapiens, UniProt Q96SB8); conditions: protein SMC6; U3A cells
[21] = target: proteins of U3A human fibrosarcoma cells (4462 proteins detected) (Homo sapiens, UniProt Q9Y221); conditions: protein NIP7; soluble abundance after heat, U3A cells
[22] = target: proteins of U3A human fibrosarcoma cells (4462 proteins detected) (Homo sapiens, UniProt O95197); conditions: protein RTN3; U3A cells
Chain of proteins of U3A human fibrosarcoma cells (4462 proteins detected) (Homo sapiens, UniProt O95197) (O95197 whole entry): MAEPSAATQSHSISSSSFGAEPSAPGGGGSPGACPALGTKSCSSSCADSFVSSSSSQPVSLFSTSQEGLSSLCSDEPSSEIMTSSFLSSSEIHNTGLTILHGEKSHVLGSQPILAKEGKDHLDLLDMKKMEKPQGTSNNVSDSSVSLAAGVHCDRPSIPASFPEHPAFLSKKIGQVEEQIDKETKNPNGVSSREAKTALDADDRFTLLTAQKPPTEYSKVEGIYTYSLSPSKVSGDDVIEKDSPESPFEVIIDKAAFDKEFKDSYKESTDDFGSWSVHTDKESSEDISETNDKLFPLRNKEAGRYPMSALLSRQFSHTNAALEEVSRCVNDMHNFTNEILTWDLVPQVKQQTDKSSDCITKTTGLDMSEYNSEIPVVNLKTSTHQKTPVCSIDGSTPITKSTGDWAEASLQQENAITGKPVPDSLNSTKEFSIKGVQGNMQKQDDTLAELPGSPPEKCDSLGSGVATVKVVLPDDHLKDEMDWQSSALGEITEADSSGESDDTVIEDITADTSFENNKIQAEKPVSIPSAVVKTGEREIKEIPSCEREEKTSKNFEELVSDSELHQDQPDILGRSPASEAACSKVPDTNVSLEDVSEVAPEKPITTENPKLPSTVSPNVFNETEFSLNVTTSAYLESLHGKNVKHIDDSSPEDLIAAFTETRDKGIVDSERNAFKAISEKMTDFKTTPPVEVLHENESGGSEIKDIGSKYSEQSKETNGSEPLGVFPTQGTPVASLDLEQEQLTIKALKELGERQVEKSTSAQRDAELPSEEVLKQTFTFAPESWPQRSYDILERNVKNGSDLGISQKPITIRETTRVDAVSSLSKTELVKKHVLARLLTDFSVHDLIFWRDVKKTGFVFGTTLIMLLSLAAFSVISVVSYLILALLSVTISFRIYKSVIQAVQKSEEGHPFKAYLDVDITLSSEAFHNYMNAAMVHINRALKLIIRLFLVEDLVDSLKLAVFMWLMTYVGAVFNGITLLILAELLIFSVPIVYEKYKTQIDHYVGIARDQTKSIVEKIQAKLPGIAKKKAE

[23] = target: proteins of U3A human fibrosarcoma cells (4462 proteins detected) (Homo sapiens, UniProt Q9NTZ6); conditions: protein RBM12; soluble abundance after heat, U3A cells
[24] = target: proteins of U3A human fibrosarcoma cells (4462 proteins detected) (Homo sapiens, UniProt Q8NFF5); conditions: protein FLAD1; U3A cells
[25] = target: proteins of U3A human fibrosarcoma cells (4462 proteins detected) (Homo sapiens, UniProt P00374); conditions: 10 μM, 2 h
Chain of proteins of U3A human fibrosarcoma cells (4462 proteins detected) (Homo sapiens, UniProt P00374) (P00374 whole entry): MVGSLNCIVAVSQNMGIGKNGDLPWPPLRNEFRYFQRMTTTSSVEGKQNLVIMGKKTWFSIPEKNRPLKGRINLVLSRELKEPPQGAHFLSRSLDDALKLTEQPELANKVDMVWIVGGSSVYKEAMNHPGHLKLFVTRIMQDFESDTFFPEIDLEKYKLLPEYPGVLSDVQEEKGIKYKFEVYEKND

[26] = target: proteins of U3A human fibrosarcoma cells (4462 proteins detected) (Homo sapiens, UniProt Q12905); conditions: protein ILF2; U3A cells
[27] = target: proteins of U3A human fibrosarcoma cells (4462 proteins detected) (Homo sapiens, UniProt O75643); conditions: protein SNRNP200; soluble abundance after heat, U3A cells
[28] = target: proteins of U3A human fibrosarcoma cells (4462 proteins detected) (Homo sapiens, UniProt P50542); conditions: protein PEX5, U3A cells
[29] = target: proteins of U3A human fibrosarcoma cells (4462 proteins detected) (Homo sapiens, UniProt Q03188); conditions: protein CENPC, U3A cells
[30] = target: proteins of U3A human fibrosarcoma cells (4462 proteins detected) (Homo sapiens, UniProt P41214); conditions: protein EIF2D; U3A cells

Chain of proteins of U3A human fibrosarcoma cells (4462 proteins detected) (Homo sapiens, UniProt Q15269) (Q15269 whole entry): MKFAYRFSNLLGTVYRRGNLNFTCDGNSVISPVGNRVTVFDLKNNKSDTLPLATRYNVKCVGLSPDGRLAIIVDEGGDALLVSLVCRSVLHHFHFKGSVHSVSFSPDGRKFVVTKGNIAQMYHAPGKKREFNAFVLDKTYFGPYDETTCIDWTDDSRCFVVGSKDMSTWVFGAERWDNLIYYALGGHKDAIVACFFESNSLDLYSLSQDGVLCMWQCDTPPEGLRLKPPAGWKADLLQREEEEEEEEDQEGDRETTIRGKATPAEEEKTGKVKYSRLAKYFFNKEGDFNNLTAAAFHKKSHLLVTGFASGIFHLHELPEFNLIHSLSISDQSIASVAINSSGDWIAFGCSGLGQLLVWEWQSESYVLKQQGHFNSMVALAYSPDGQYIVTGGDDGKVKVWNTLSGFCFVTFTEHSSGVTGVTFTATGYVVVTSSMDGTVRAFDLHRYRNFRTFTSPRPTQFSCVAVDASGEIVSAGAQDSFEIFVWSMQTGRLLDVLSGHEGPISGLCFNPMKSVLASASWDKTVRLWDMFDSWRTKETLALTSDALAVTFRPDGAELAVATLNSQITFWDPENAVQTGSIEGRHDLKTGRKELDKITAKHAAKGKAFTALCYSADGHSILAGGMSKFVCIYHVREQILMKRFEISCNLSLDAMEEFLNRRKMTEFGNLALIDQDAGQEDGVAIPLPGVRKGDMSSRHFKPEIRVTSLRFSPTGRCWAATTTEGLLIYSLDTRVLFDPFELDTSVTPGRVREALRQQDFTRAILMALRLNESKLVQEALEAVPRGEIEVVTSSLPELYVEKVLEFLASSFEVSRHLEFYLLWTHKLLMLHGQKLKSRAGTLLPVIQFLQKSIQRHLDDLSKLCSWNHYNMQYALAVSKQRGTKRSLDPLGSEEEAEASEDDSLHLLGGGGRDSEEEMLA

CCc1nc(N)nc(N)c1-c1ccc(Cl)cc1 [pyrimethamine] was tested, and the “Log2 (PYR/DMSO)” value [1] was 0.18, the “Log2 (PYR/DMSO)” value [2] was 0.13 and the “Log2 (PYR/DMSO)” value [3] was -0.05. For the same compound, the “Log2 (PYR/DMSO)” value [4] was -0.05, the “Log2 (PYR/DMSO), DDX54” value [5] was 0.25 and the “Log2 (PYR/DMSO), WDR87” value [6] was -0.16. The “Log2 (PYR/DMSO), KIAA1143” value [7] was -0.16, the “Log2 (PYR/DMSO)” value [8] was 0.13 and the “Log2 (PYR/DMSO)” value [9] was -0.04. The “Log2 (PYR/DMSO)” value [10] was 0.17, the “Log2 (PYR/DMSO), PLCH1” value [11] was 0.32 and the “Log2 (PYR/DMSO)” value [12] was 0.16. The “Log2 (PYR/DMSO)” value [13] was -0.04, the “Log2 (PYR/DMSO)” value [14] was -0.05 and the “Log2 (PYR/DMSO)” value [15] was 0.14. The “Log2 (PYR/DMSO)” value [16] was 0.17, the “Log2 (PYR/DMSO)” value [17] was 0.16 and the “Log2 (PYR/DMSO)” value [18] was 0.19. For the same compound, the “Log2 (PYR/DMSO)” value [19] was -0.05, the “Log2 (PYR/DMSO)” value [20] was 0.18 and the “Log2 (PYR/DMSO)” value [21] was 0.14. For the same compound, the “Log2 (PYR/DMSO)” value [22] was 0.16, the “Log2 (PYR/DMSO)” value [23] was 0.15 and the “Log2 (PYR/DMSO)” value [24] was 0.16. For the same compound, the “increased abundance of DHFR in the soluble fraction” value ([25]; U3A cells, vs vehicle) was 1.7 fold, the “Log2 (PYR/DMSO), DHFR” value ([25]; protein DHFR, U3A) was 0.80 and the “Log2 (PYR/DMSO)” value [26] was 0.18. For the same compound, the “Log2 (PYR/DMSO)” value [27] was 0.15, the “Log2 (PYR/DMSO)” value [28] was -0.03 and the “Log2 (PYR/DMSO)” value [29] was -0.04. The “Log2 (PYR/DMSO)” value [30] was 0.22.
